{"source": "patent US7393828B2", "about": "“Modified MscL protein channel” (Applied NanoSystems B.V., priority 2003, dated 2008)", "key": {"[1]": {"biological_target": "MscL channel protein (G22C, cysteine at 22nd position) (Escherichia coli, UniProt P0A742, G22C)", "sequence (P0A742 whole entry G22C)": "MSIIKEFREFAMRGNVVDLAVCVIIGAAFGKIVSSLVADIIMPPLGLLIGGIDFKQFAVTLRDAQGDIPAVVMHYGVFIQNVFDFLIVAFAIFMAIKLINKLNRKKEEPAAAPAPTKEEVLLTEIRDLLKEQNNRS", "settings": "for channel activity of modified protein in response to pH: same sample in the same buffer at different pHs; for pH at which channel activity starts: buffers at different pHs", "description": "All synthesized compounds were attached to the MscL protein from E. coli via cysteine modification. In this example, the 22nd position of the protein was mutated to a cysteine.\nA membrane pellet fraction was obtained from a fermentor culture of E. coli pB104 cells containing the plasmid PB104 carrying the MscL(G22C)-6His construct. MscL was isolated to near homogeneity via a single nickel-nitriloacetic acid (Ni-NTA) metal-affinity chromatography step.\nThe protein modification reaction was stopped and the excess label was removed by applying the sample into a gel filtration column. The protein concentration of elution fractions was determined by Bradford Assay.\nThe modified protein was reconstituted in synthetic lipid membranes in order to follow the channel activity. For this purpose, DOPC:Cholesterol:DSPE-PEG (70:20:10 Molar ratio) liposomes were titrated with Triton-X100 until saturation. Titrated liposomes were mixed with modified protein in 1:120 (wt:wt) protein to lipid ratio. Biobeads were used to remove the detergent. A self-quenching dye, calcein, was added and included into the interior of the proteoliposomes during reconstitution.\nProteoliposomes containing modified MscL protein were analyzed by a fluorescent dye efflux assay. The activity of the channel was measured as an increase in the fluorescence of a reporter molecule, the dye calcein. Calcein is included in the liposome interior at a self-quenching concentration, but when the calcein escapes into the exterior medium, the dilution is such that quenching is completely abolished.\nDuring reconstitution of the protein into the mixture of synthetic lipids in the presence of a detergent, a self-quenching dye, calcein, is also added into the mixture to a final concentration of 50 mM. After the reconstitution is completed by the removal of the detergent, the calcein-containing liposomal fraction was separated from the unencapsulated free calcein by passing the sample through a Sephadex G50 size exclusion column (FIG. 7A).\nA portion of the liposomal fraction is placed in 2 ml iso-osmotic buffer and the activity of the channels is followed by measuring the increase in fluorescence as calcein becomes dequenched upon being released through the channel protein in response to a stimulus (FIG. 7B). Fluorescence was monitored with a SLM 500 spectrofluorometer Excitation and emission wavelengths were 490 (slit 2 nm) and 520 nm (slit 4 nm), respectively. A positively charged MTS reagent (MTSET) was used as a positive control.\nThe MscL protein was modified with the different pH-responsive compounds. The activity of the channel in response to pH was analyzed by the calcein efflux assay. In order to do that, the same buffer at different pHs were prepared and the same sample is analyzed in each buffer.\nThe MscL protein was modified with a light-sensitive compound. The activity of the channel was analyzed in response to pH. After measuring the initial fluorescence value for samples at each pH, they were exposed to 366 nm light for five to ten minutes. Then, the measurement was continued as before.\nThe protein from cysteine mutant MscL (cysteine in its 22nd amino acid position) was isolated and modified as explained in Example 2, except that the light-responsive compound E (see FIG. 12c) (P6—C1[X═I]) was dissolved in DM50 and incubated with the protein at a 1:500 molar ratio (protein:compound) for 45 minutes.\n(§1) The resulting modified channel was reconstituted in the presence of a fluorescent dye as explained in Example 3 for the calcein efflux experiment. Another sample of the modified channel was prepared for patch clamp experiments as indicated in Example 6.\nThe protein was isolated and modified as in Example 2 and reconstituted in the presence of calcein as indicated in Example 3."}, "[2]": {"biological_target": "MscL channel protein (cysteine in its 22nd amino acid position) (Escherichia coli, UniProt P0A742, G22C)", "sequence (P0A742 whole entry G22C)": "as above", "procedure": "The activity of the chemically modified MscL is analyzed real time at the single molecule level with patch clamp, a classical electrophysiological technique. This technique allows sealing a patch of membrane, which has embedded channel proteins in it, into the tip of a glass micropipette, and monitoring the ionic current flowing through the open channels in response to different conditions.\nAs a mechanosensitive channel, unmodified MscL needs a significant amount of tension on the membrane to gate. In patch clamp conditions, it corresponds to the application of negative pressure almost as high as that causing rupturing of the patched membrane.\nThe channel activity was measured by following its conductance.\nThe protein from cysteine mutant MscL (cysteine in its 22nd amino acid position) was isolated, modified and reconstituted as explained in Example 2. After reconstitution, giant proteoliposomes were prepared as indicated (A. H. Delcour, B. Martinac, F. R. Blattner, C. Kung, Biophys. J. 1989, 56:631-636). Ten μl rehydrated lipids were placed in 100 μl bath solution and resulting giant liposomes were patched by using glass pipettes with 1 μm tip size. They were made from 100 μl borosilicate capillaries in Sutter 97/IVF micropipette puller. Single channel recordings were performed at +20 mV in symmetrical buffer conditions in 200 mM KCl, 100 mM MgCl2, 5 mM HEPES, pH 6-8. Data were amplified and filtered in Axopatch1D amplifier and sampled in Digidata 1322A digitizer. Recordings were analyzed with pCLAMP8 software.\nas §1\nMembranes having modified channels were patched at dark or five to ten minutes after illumination with 366 nm light."}, "[3]": {"biological_target": "double cysteine MscL mutant (22nd and 23rd positions) (Escherichia coli, UniProt P0A742, G22C/V23C)", "sequence (P0A742 whole entry G22C/V23C)": "as the sequence (P0A742 whole entry G22C) above, with V23C counted along it", "description": "In order to further improve modulation of the activity of chemically modified MscL, in addition to the amino acid at the 22nd position of the channel, the 23rd position is also replaced with cysteine. This way, if all the subunits are modified, one can introduce two times more charge.\nThis example compares the single- and double-cysteine mutants for their performance in efflux from proteoliposomes.\nThe protein from each mutant was obtained and modified with the Compound C (Q1[R1═R2=Me]-L1[n=2]—C3), as explained in Example 2, and the reconstitution for calcein efflux assay was as in Example 3."}, "[4]": {"assay": "Solubility of the product in common solvents", "format": "physicochemical"}}, "data": [{"smiles": "C[N+](C)(C)CCSS(C)(=O)=O.[Br-]", "note": "[MTSET, [2-(Trimethylammonium)-ethyl]-methanethiosulfonate bromide, reference compound]", "values": [{"measurement": "channel opening after reaction with free sulfhydryl at 22nd position (positive control)", "setting": "[1]; MTSET 0.8 mM final concentration as trigger", "result": "always opens the channel"}]}, {"smiles": "CS(=O)(=O)SCCOC(=O)CN", "note": "[compound A]", "values": [{"measurement": "channel activity at physiological pH", "setting": "[1]; physiological pH", "result": "some activity"}, {"measurement": "channel activity of modified protein in response to pH", "setting": "[1]", "result": "pH-dependent activation, especially at lower pHs"}]}, {"smiles": "CNCC(=O)OCCSS(C)(=O)=O", "note": "[compound B]", "values": [{"measurement": "channel gating in patch clamp at pH 6.2", "setting": "[2]; pH 6.2, n=4", "result": "gated even without any applied negative pressure"}, {"measurement": "mean negative pressure applied (until membrane rupture, no gating)", "setting": "[2]; pH 7.2, n=10", "result": 79, "unit": "mmHg"}, {"measurement": "channel activity in patch clamp at pH 7.2", "setting": "[2]; pH 7.2, n=10, negative pressure applied until the patched membrane ruptured", "result": "did not give any activity"}, {"measurement": "pH at which channel activity starts", "setting": "[1]", "result": "< 8", "unit": "pH"}, {"measurement": "pKa", "setting": "[1]; compound attached to MscL", "result": "approximately 8"}, {"measurement": "channel activity of modified protein in response to pH", "setting": "[1]", "result": "pH-dependent activation"}]}, {"smiles": "CN(C)CC(=O)OCCSS(C)(=O)=O", "note": "[compound C]", "values": [{"measurement": "pH dependence of gating in patch clamp", "setting": "[2]; different pHs", "result": "gated only at low pH environment"}, {"measurement": "channel gating in patch clamp at pH 6.3", "setting": "[2]; pH 6.3", "result": "spontaneous gating"}, {"measurement": "pH at which channel activity starts", "setting": "[1]", "result": "~7.03", "unit": "pH"}, {"measurement": "release of liposomal content at high pH, single mutant", "setting": "[1]; high pH", "result": "did not release the liposomal content"}, {"measurement": "channel activity at pH 7.5", "setting": "[1]; pH 7.5", "result": "no activity"}, {"measurement": "release of liposomal content at high pH, double mutant", "setting": "[3]; high pH", "result": "did not release the liposomal content"}, {"measurement": "release at low pH, double mutant compared with single mutant", "setting": "[3]; low pH, two separate experiments", "result": "better release"}]}, {"smiles": "COc1cc(COC(=O)NCCSS(C)(=O)=O)c([N+](=O)[O-])cc1OC", "note": "[compound D, methanethiosulfonic acid S-[2-(4,5-dimethoxy-2-nitro-benzyloxycarbonylamino)-ethyl] ester]", "values": [{"measurement": "channel activity after cleavage of the light-sensitive part", "setting": "[1]; after 366 nm light for five to ten minutes, different pHs", "result": "pH-dependent activity"}, {"measurement": "channel activity before photolysis", "setting": "[1]; no illumination, different pHs", "result": "stayed inactive until the photolysis occurs"}, {"measurement": "solubility in DMF and DMSO", "setting": "[4]; DMF, DMSO", "result": "soluble"}, {"measurement": "solubility in dichloromethane and chloroform", "setting": "[4]; dichloromethane, chloroform", "result": "a little soluble"}, {"measurement": "solubility in other common solvents", "setting": "[4]; other common solvents", "result": "very badly soluble"}]}, {"smiles": "COc1cc(COC(=O)CI)c([N+](=O)[O-])cc1OC", "note": "[compound E, 4.5-dimethoxy-2-nitrobenzyl 2-iodoacetate]", "values": [{"measurement": "channel gating in patch clamp at dark", "setting": "[2]; dark, negative pressure up to membrane rupture", "result": "no channel gating"}, {"measurement": "channel gating in patch clamp after illumination", "setting": "[2]; five to ten minutes after illumination with 366 nm light, no tension", "result": "gated simultaneously with no tension"}, {"measurement": "release of fluorescent dye in the dark", "setting": "[1]; dark, iso-osmotic conditions", "result": "did not give any release"}, {"measurement": "release of fluorescent dye after illumination", "setting": "[1]; exposed to ultraviolet light, iso-osmotic conditions", "result": "released the fluorescent dye as soon as proteoliposomes were exposed to ultraviolet light"}]}]}
